Assay results published in patent US20120121591A1 (priority 2009, published 2012).
Like-named read-outs stand apart in the source and are kept apart here.

Key:
[1] = tested on: IFN-g secretion from T cells in human whole blood; format: cell-based
[2] = tested on: IL-2 secretion from T cells in human whole blood; format: cell-based
[3] = read-out: WB (IFNg) IC5- (nM, Avg)
[4] = read-out: WB (IFNg) IC50 (nM, Avg)

Row | Compound | IC50 [1, 3] | IC50 [1, 4] | also measured
1 | CC[C@H](C)[C@@H]1NC(=O)[C@@H](NC(=O)[C@H](CO)NC(=O)[C@@H](N)CCCNC(=N)N)CSSC[C@@H](C(=O)O)NC(=O)[C@H]([C@@H](C)O)NC(=O)CNC(=O)[C@@H]2CSSC[C@@H]3NC(=O)[C@H](CCC(N)=O)NC(=O)[C@H](Cc4ccccc4)NC(=O)[C@H](C)NC(=O)[C@H]([C@@H](C)O)NC(=O)[C@H](CSSC[C@H](NC(=O)[C@H](Cc4ccccc4)NC(=O)[C@H](CO)NC(=O)[C@H](CC(C)C)NC(=O)[C@H](CCCNC(=N)N)NC(=O)[C@H](Cc4ccc(O)cc4)NC(=O)[C@H](CCC(=O)O)NC(=O)[C@H](CCSC)NC(=O)[C@H](CO)NC(=O)[C@H](Cc4c[nH]cn4)NC(=O)[C@H](CCCCN)NC3=O)C(=O)N[C@@H](CCCNC(=N)N)C(=O)N[C@@H](CCCCN)C(=O)N[C@@H]([C@@H](C)O)C(=O)N2)NC(=O)[C@H](CCCNC(=N)N)NC(=O)[C@H](CO)NC(=O)[C@H](CCCCN)NC(=O)[C@@H]2CCCN2C(=O)[C@H]([C@@H](C)CC)NC(=O)[C@H]([C@@H](C)O)NC(=O)[C@H](CC(=O)O)NC1=O [[Glu22]ShK] | 100 nM | – | –
2 | Fc.L20FcLoopShk (scFc): single-chain Fc with ShK inserted in the second Fc domain, 20-residue linker | – | – | IC50 ([2]; read-out: In Vitro IC50, whole blood assay (inhibition of IL-2), average results): 2.01 nM
3 | CC[C@H](C)[C@@H]1NC(=O)[C@@H](NC(=O)[C@H](CO)NC(=O)[C@@H](N)CCCNC(=N)N)CSSC[C@@H](C(=O)O)NC(=O)[C@H]([C@@H](C)O)NC(=O)CNC(=O)[C@@H]2CSSC[C@@H]3NC(=O)[C@H](CCC(N)=O)NC(=O)[C@H](Cc4ccccc4)NC(=O)[C@H](C)NC(=O)[C@H]([C@@H](C)O)NC(=O)[C@H](CSSC[C@H](NC(=O)[C@H](Cc4ccccc4)NC(=O)[C@H](CO)NC(=O)[C@H](CC(C)C)NC(=O)[C@H](CCCNC(=N)N)NC(=O)[C@H](Cc4ccc(O)cc4)NC(=O)[C@H](CCCCN)NC(=O)[C@H](CCSC)NC(=O)[C@H](CO)NC(=O)[C@H](Cc4c[nH]cn4)NC(=O)[C@H](CCCCN)NC3=O)C(=O)N[C@@H](CCCNC(=N)N)C(=O)N[C@@H](CCCCN)C(=O)N[C@@H]([C@@H](C)O)C(=O)N2)NC(=O)[C@H](CCCNC(=N)N)NC(=O)[C@H](CO)NC(=O)[C@H](CCCCN)NC(=O)[C@H](CCCCN)NC(=O)[C@H]([C@@H](C)CC)NC(=O)[C@H]([C@@H](C)O)NC(=O)[C@H](CC(=O)O)NC1=O [[Lys8]ShK] | – | 0.974 nM | –
4 | CC[C@H](C)[C@@H]1NC(=O)[C@@H](NC(=O)[C@H](CO)NC(=O)[C@@H](N)CCCNC(=N)N)CSSC[C@@H](C(=O)O)NC(=O)[C@H]([C@@H](C)O)NC(=O)[C@H](CCCCN)NC(=O)[C@@H]2CSSC[C@@H]3NC(=O)[C@H](CCC(N)=O)NC(=O)[C@H](Cc4ccccc4)NC(=O)[C@H](C)NC(=O)[C@H]([C@@H](C)O)NC(=O)[C@H](CSSC[C@H](NC(=O)[C@H](Cc4ccccc4)NC(=O)[C@H](CO)NC(=O)[C@H](CC(C)C)NC(=O)[C@H](CCCNC(=N)N)NC(=O)[C@H](Cc4ccc(O)cc4)NC(=O)[C@H](CCCCN)NC(=O)[C@H](CCSC)NC(=O)[C@H](CO)NC(=O)[C@H](Cc4c[nH]cn4)NC(=O)[C@H](CCCCN)NC3=O)C(=O)N[C@@H](CCCNC(=N)N)C(=O)N[C@@H](CCCCN)C(=O)N[C@@H]([C@@H](C)O)C(=O)N2)NC(=O)[C@H](CCCNC(=N)N)NC(=O)[C@H](CO)NC(=O)[C@H](CCCCN)NC(=O)[C@@H]2CCCN2C(=O)[C@H]([C@@H](C)CC)NC(=O)[C@H]([C@@H](C)O)NC(=O)[C@H](CC(=O)O)NC1=O [[Lys33]ShK] | – | 0.317 nM | –
5 | CC[C@H](C)[C@@H]1NC(=O)[C@@H](NC(=O)[C@H](CO)NC(=O)[C@@H](N)CCCNC(=N)N)CSSC[C@@H](C(=O)O)NC(=O)[C@H]([C@@H](C)O)NC(=O)CNC(=O)[C@@H]2CSSC[C@@H]3NC(=O)[C@H](CCC(N)=O)NC(=O)[C@H](Cc4ccccc4)NC(=O)[C@H](C)NC(=O)[C@H]([C@@H](C)O)NC(=O)[C@H](CSSC[C@H](NC(=O)[C@H](Cc4ccccc4)NC(=O)[C@H](CO)NC(=O)[C@H](CC(C)C)NC(=O)[C@H](CCCCN)NC(=O)[C@H](Cc4ccc(O)cc4)NC(=O)[C@H](CCCCN)NC(=O)[C@H](CCSC)NC(=O)[C@H](CO)NC(=O)[C@H](Cc4c[nH]cn4)NC(=O)[C@H](CCCCN)NC3=O)C(=O)N[C@@H](CCCNC(=N)N)C(=O)N[C@@H](CCCCN)C(=O)N[C@@H]([C@@H](C)O)C(=O)N2)NC(=O)[C@H](CCCNC(=N)N)NC(=O)[C@H](CO)NC(=O)[C@H](CCCCN)NC(=O)[C@@H]2CCCN2C(=O)[C@H]([C@@H](C)CC)NC(=O)[C@H]([C@@H](C)O)NC(=O)[C@H](CC(=O)O)NC1=O [[Lys24]ShK] | – | – | IC50 ([2]; read-out: WB (IL-2) IC50 (nM, Avg)): 0.044 nM
6 | CC[C@H](C)[C@@H]1NC(=O)[C@@H](NC(=O)[C@H](CO)NC(=O)[C@@H](N)CCCNC(=N)N)CSSC[C@@H](C(N)=O)NC(=O)[C@H]([C@@H](C)O)NC(=O)CNC(=O)[C@@H]2CSSC[C@@H]3NC(=O)[C@H](CCCCN)NC(=O)[C@H](Cc4ccccc4)NC(=O)[C@H](C)NC(=O)[C@H]([C@@H](C)O)NC(=O)[C@H](CSSC[C@H](NC(=O)[C@H](Cc4ccccc4)NC(=O)[C@H](CO)NC(=O)[C@H](CC(C)C)NC(=O)[C@H](CCCNC(=N)N)NC(=O)[C@H](Cc4ccc(O)cc4)NC(=O)[C@H](CCCCN)NC(=O)[C@H](CCSC)NC(=O)[C@H](CO)NC(=O)[C@H](Cc4c[nH]cn4)NC(=O)[C@H](CCCCN)NC3=O)C(=O)N[C@@H](CCCNC(=N)N)C(=O)N[C@@H](CCCCN)C(=O)N[C@@H]([C@@H](C)O)C(=O)N2)NC(=O)[C@H](CCCNC(=N)N)NC(=O)[C@H](CO)NC(=O)[C@H](CCCCN)NC(=O)[C@@H]2CCCN2C(=O)[C@H]([C@@H](C)CC)NC(=O)[C@H]([C@@H](C)O)NC(=O)[C@H](CC(=O)O)NC1=O [[Lys16]ShK-amide] | – | – | IC50 ([2]; read-out: WB (IL-2) IC50): 0.1 nM
7 | [1-Nal14]ShK (RSCIDTIPKSRCTXFQCKHSMKYRLSFCRKTCGTC; non-natural residues) | – | 0.11 nM | –
8 | CC[C@H](C)[C@@H]1NC(=O)[C@@H](NC(=O)[C@H](CO)NC(=O)[C@@H](N)CCCNC(=N)N)CSSC[C@@H](C(=O)O)NC(=O)[C@H]([C@@H](C)O)NC(=O)CNC(=O)[C@@H]2CSSC[C@@H]3NC(=O)[C@H](CCC(N)=O)NC(=O)[C@H](Cc4ccccc4)NC(=O)[C@H](C)NC(=O)[C@H]([C@@H](C)O)NC(=O)[C@H](CSSC[C@H](NC(=O)[C@H](Cc4ccccc4)NC(=O)[C@H](CO)NC(=O)[C@H](CC(C)C)NC(=O)[C@H](CCCNC(=N)N)NC(=O)[C@H](CCC(=O)O)NC(=O)[C@H](CCCCN)NC(=O)[C@H](CCSC)NC(=O)[C@H](CO)NC(=O)[C@H](Cc4c[nH]cn4)NC(=O)[C@H](CCCCN)NC3=O)C(=O)N[C@@H](CCCNC(=N)N)C(=O)N[C@@H](CCCCN)C(=O)N[C@@H]([C@@H](C)O)C(=O)N2)NC(=O)[C@H](CCCNC(=N)N)NC(=O)[C@H](CO)NC(=O)[C@H](CCCCN)NC(=O)[C@@H]2CCCN2C(=O)[C@H]([C@@H](C)CC)NC(=O)[C@H]([C@@H](C)O)NC(=O)[C@H](CC(=O)O)NC1=O [[Glu23]ShK] | 100 nM | – | –
9 | CC[C@H](C)[C@@H]1NC(=O)[C@@H](NC(=O)[C@H](CO)NC(=O)[C@@H](N)CCCNC(=N)N)CSSC[C@@H](C(=O)O)NC(=O)[C@H]([C@@H](C)O)NC(=O)[C@H](Cc2cccc3ccccc23)NC(=O)[C@@H]2CSSC[C@@H]3NC(=O)[C@H](CCC(N)=O)NC(=O)[C@H](Cc4ccccc4)NC(=O)[C@H](C)NC(=O)[C@H]([C@@H](C)O)NC(=O)[C@H](CSSC[C@H](NC(=O)[C@H](Cc4ccccc4)NC(=O)[C@H](CO)NC(=O)[C@H](CC(C)C)NC(=O)[C@H](CCCNC(=N)N)NC(=O)[C@H](Cc4ccc(O)cc4)NC(=O)[C@H](CCCCN)NC(=O)[C@H](CCSC)NC(=O)[C@H](CO)NC(=O)[C@H](Cc4c[nH]cn4)NC(=O)[C@H](CCCCN)NC3=O)C(=O)N[C@@H](CCCNC(=N)N)C(=O)N[C@@H](CCCCN)C(=O)N[C@@H]([C@@H](C)O)C(=O)N2)NC(=O)[C@H](CCCNC(=N)N)NC(=O)[C@H](CO)NC(=O)[C@H](CCCCN)NC(=O)[C@@H]2CCCN2C(=O)[C@H]([C@@H](C)CC)NC(=O)[C@H]([C@@H](C)O)NC(=O)[C@H](CC(=O)O)NC1=O [[1-Nal33]ShK] | – | 1.43 nM | –
10 | CC[C@H](C)[C@@H]1NC(=O)[C@@H](NC(=O)[C@H](CO)NC(=O)[C@@H](N)CCCNC(=N)N)CSSC[C@@H](C(=O)O)NC(=O)[C@H]([C@@H](C)O)NC(=O)CNC(=O)[C@@H]2CSSC[C@@H]3NC(=O)[C@H](CCC(N)=O)NC(=O)[C@H](Cc4ccccc4)NC(=O)[C@H](C)NC(=O)[C@H]([C@@H](C)O)NC(=O)[C@H](CSSC[C@H](NC(=O)[C@H](Cc4ccccc4)NC(=O)[C@H](CO)NC(=O)[C@H](CC(C)C)NC(=O)[C@H](CCCNC(=N)N)NC(=O)[C@H](Cc4ccc(O)cc4)NC(=O)[C@H](CCCCN)NC(=O)[C@H](CCSC)NC(=O)[C@H](CO)NC(=O)[C@H](CCC(=O)O)NC(=O)[C@H](CCCCN)NC3=O)C(=O)N[C@@H](CCCNC(=N)N)C(=O)N[C@@H](CCCCN)C(=O)N[C@@H]([C@@H](C)O)C(=O)N2)NC(=O)[C@H](CCCNC(=N)N)NC(=O)[C@H](CO)NC(=O)[C@H](CCCCN)NC(=O)[C@@H]2CCCN2C(=O)[C@H]([C@@H](C)CC)NC(=O)[C@H]([C@@H](C)O)NC(=O)[C@H](CC(=O)O)NC1=O [[Glu19]ShK] | 0.215 nM | – | –
11 | CC[C@H](C)[C@@H]1NC(=O)[C@@H](NC(=O)[C@H](CO)NC(=O)[C@@H](N)CCCNC(=N)N)CSSC[C@@H](C(=O)O)NC(=O)[C@H]([C@@H](C)O)NC(=O)CNC(=O)[C@@H]2CSSC[C@@H]3NC(=O)[C@H](CCC(N)=O)NC(=O)[C@H](Cc4ccccc4)NC(=O)[C@H](C)NC(=O)[C@H]([C@@H](C)O)NC(=O)[C@H](CSSC[C@H](NC(=O)[C@H](Cc4ccccc4)NC(=O)[C@H](CO)NC(=O)[C@H](CC(C)C)NC(=O)[C@H](CCC(=O)O)NC(=O)[C@H](Cc4ccc(O)cc4)NC(=O)[C@H](CCCCN)NC(=O)[C@H](CCSC)NC(=O)[C@H](CO)NC(=O)[C@H](Cc4c[nH]cn4)NC(=O)[C@H](CCCCN)NC3=O)C(=O)N[C@@H](CCCNC(=N)N)C(=O)N[C@@H](CCCCN)C(=O)N[C@@H]([C@@H](C)O)C(=O)N2)NC(=O)[C@H](CCCNC(=N)N)NC(=O)[C@H](CO)NC(=O)[C@H](CCCCN)NC(=O)[C@@H]2CCCN2C(=O)[C@H]([C@@H](C)CC)NC(=O)[C@H]([C@@H](C)O)NC(=O)[C@H](CC(=O)O)NC1=O [[Glu24]ShK] | 4.07 nM | – | –
